From patent US8367729B2, “Composition with preventive or improvement effect on symptoms or diseases associated with stress-induced behavior disorders” (Suntory Holdings Limited, priority 2004, dated 2013)

Legend:
[1] = tested on: IL-1β induced stress anxiety behavior models; details: administration of free arachidonic acid; J Lipid Res. 44, 1984, 2003; cited from earlier work
[2] = tested on: mice subjected to restraint stress; experiment: Behavioral observation test (Irwin neurobehavioral test method) after 6-hour restraint stress; type: in vivo, male ICR mice; details: conclusion of Example 3
Source text: The experimental groups consisted of 51 two- to three-month-old male ICR mice, divided into a control diet group (27 mice) and a TG[…]-containing diet group (24 mice), with the control diet or TG[…]-containing diet shown in Table 1 being given to each group. Each group was further divided into non-restrained groups (non-restrained control diet group (9), non-restrained arachidonic acid (ARA) diet group (12)) and restrained groups (restrained control diet group (18), restrained ARA diet group (12)). The restraining was accomplished using a wire mesh restraining tube, once for a 6 hour period three weeks after the start of feeding. The control diet or TG[…]-containing diet shown in Table 1 continued to be fed to each group for the remaining experiment period. The TG[…] used for the TG[…]-containing diet was the product obtained in Example 1. Since the daily ingestion was approximately 5 g per mouse, the daily intake of TG[…] was 25 mg per mouse. Also, since the total fatty acids bonded to the arachidonic acid-containing oils or fats (triglycerides) prepared in Example 1 included 40 wt % arachidonic acid, the daily intake of arachidonic acid was 10 mg per mouse. The 6-hour restraint with a wire mesh restraining tube was immediately followed by a behavioral observation test. […]

CCCCC/C=C\C/C=C\C/C=C\C/C=C\CCCC(=O)O [arachidonic acid]
effect on IL-1β induced stress anxiety behavior [1]: not effective | overall effect on behavioral patterns altered as a result of stress [2]: exhibits an improving effect against behavioral disorders
